The record followed here is US8314268B2, “1-phenylalkanecarboxylic acid derivatives for the treatment of neurodegenerative diseases” (Chiesi Farmaceutici S.p.A., priority 2003, dated 2012).

Like-named read-outs stand apart in the source and are kept apart here.

For assay [1], the system named is Aβ42 release in H4-15× cells. The assay is described as follows: Inhibition of Aβ42 release in the supernatant of H4-15× cells. Type of assay: cell-based, human. To be noted: for inhibition at 100 µM: Homo sapiens, H415, overnight (14-16 hours) incubation; for % inhibition of Aβ42 release: 100 μM, overnight (14-16 hours) incubation. Here is the method: H4-15× cells (human neuroglioma cells transfected with the human gene encoding for the precursor of β-amyloid protein APP695) were cultured in flasks (in incubator at 37° C., under aqueous vapour saturated atmosphere with 5% carbon dioxide), in the presence of hygromycin and blasticidin, which maintain the selective pressure for the cells continuously expressing the gene of interest.
When the cells reached about 90% confluency, they were collected and re-seeded in 24 wells plates (2×10^5 cells each), in 0.5 ml of complete culture medium. After approx. 24 hours, when the cells had adhered to the well surface and reached confluency, the medium of each well was replaced with 0.5 ml of fresh culture medium, supplemented with a compound (I) to 100 micromolar final concentration. Each tested concentration was repeated in triplicate. The molecules used for the treatment were previously dissolved in dimethylsulfoxide (DMSO) or in a dimethylsulfoxide/water mixture, the final concentration of DMSO in the wells not exceeding 1%. Thus the prepared plates were incubated again overnight (14-16 hours); afterwards the cell supernatant was taken from each well and Aβ42 and Aβ40 proteins were quantitated. The assay was carried out with an instrumentation for microplates chemoluminescence analysis, which allows to separately quantify the two proteins and is based on the immobilization of an analyte-antibody complex on paramagnetic microbeads. One of the antibodies of this complex is marked with a ruthenium compound which, upon electrochemical excitement, gives a light signal, having intensity proportional to the amount of analyte present.

The target in assay [2] is T1, cyclooxygenase-1 (COX-1) (Rattus norvegicus, UniProt Q63921).
T1 construct: Aliquots of heparinized blood (500 μl) were preincubated with 100 μM concentration of the tested compounds; from tissue; host or cells: rat whole blood (heparinized, from the abdominal aorta)
T1 sequence (Q63921 27-602): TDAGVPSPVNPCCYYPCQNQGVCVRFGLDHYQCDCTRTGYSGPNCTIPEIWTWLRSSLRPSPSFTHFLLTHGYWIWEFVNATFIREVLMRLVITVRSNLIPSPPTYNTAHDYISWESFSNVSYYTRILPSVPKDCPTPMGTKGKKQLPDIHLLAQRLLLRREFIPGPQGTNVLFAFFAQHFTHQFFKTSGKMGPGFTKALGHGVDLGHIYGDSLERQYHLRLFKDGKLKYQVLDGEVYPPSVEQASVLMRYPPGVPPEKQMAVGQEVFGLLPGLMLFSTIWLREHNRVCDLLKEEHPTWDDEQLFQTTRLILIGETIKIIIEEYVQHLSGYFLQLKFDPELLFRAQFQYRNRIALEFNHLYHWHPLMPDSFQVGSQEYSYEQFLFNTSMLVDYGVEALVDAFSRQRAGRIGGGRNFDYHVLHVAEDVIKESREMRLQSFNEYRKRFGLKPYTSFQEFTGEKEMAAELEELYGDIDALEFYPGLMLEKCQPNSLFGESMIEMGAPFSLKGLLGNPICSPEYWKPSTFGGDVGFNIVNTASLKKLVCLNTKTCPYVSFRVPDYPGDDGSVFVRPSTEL
Briefly: Inhibition of cyclooxygenase-1 (COX-1) in rat whole blood (TxB2 production). Type of assay: cell-based. To be noted: for inhibition at 100 µM: read-out: % COX-1 inhibitory activity. Here is the method:
Whole blood was taken from the rat abdominal aorta and immediately placed in heparinized tubes. Aliquots of heparinized blood (500 μl) were preincubated with 100 μM concentration of the tested compounds or with the only carrier (DMSO) for 1 h at 37° C. Eicosanoid production was induced by addition of calcium ionophore A23187 (final concentration 5×10^−5 M) and was interrupted after 30 minute incubation by quickly placing the samples in dry ice. Thereafter, samples were centrifuged (12000 g×3 minutes a 4° C.) and the production of TxB2 thromboxane B2 was calculated by radioimmunoassay.

Setting [3] is: 100 μM, rat whole blood, calcium ionophore A23187-induced TxB2 production.

In turn, `CC(C)(C(=O)O)c1ccc(-c2ccc(C(F)(F)F)cc2)c(F)c1` [CHF 4810, 2-methyl-2(2-fluoro-4′-trifluoromethylbiphen-4-yl)propionic acid] returned an inhibition at 100 µM in assay [1] of 58%.
Consider `CC(C)(C(=O)O)c1ccc(-c2ccc(C3CCCCC3)cc2)c(F)c1` [CHF 4961, 2-methyl-2(2-fluoro-4′cyclohexylbiphen-4-yl)propionic acid], for which the inhibition at 100 µM was 5.2% in assay [2] (setting [3]) and 76.6% in assay [1].
Turning to `O=C(O)C1(c2ccc(-c3ccc(C(F)(F)F)cc3)c(F)c2)CC1` [CHF 5022, 1-(2-fluoro-4′-trifluoromethylbiphenyl-4-yl)cyclopropanecarboxylic acid], the inhibition at 100 µM in assay [2] (setting [3]) stood at 0%; in assay [1], 55.4%.
As for `O=C(O)C1(c2ccc(-c3cccc(OC(F)(F)F)c3)c(F)c2)CC1` [CHF 5045, 1-(2-fluoro-3′-trifluoromethoxybiphenyl-4-yl)cyclopropanecarboxylic acid], the inhibition at 100 µM in assay [2] (setting [3]) worked out at 8.3%; in assay [1] it was 56.4%.
`O=C(O)C1(c2ccc(-c3ccc(OC(F)(F)F)cc3)c(F)c2)CC1` [CHF 5046, 1-(2-fluoro-4′-trifluoromethoxybiphenyl-4-yl)cyclopropanecarboxylic acid]: the inhibition at 100 µM in assay [2] (setting [3]) worked out at 2.6%; in assay [1] it was 70.4%.
Regarding `O=C(O)C1(c2ccc(-c3cccc(C(F)(F)F)c3)c(F)c2)CC1` [CHF 5058, 1-(2-fluoro-3′-trifluoromethylbiphenyl-4-yl)cyclopropanecarboxylic acid], the inhibition at 100 µM in assay [2] (setting [3]) came to 0%; in assay [1], 54.8%.
Taken in the same sequence, the figures for `O=C(O)C1(c2ccc(-c3ccc(O)cc3)c(F)c2)CC1` [CHF 5070, 1-(2-fluoro-4′-hydroxybiphenyl-4-yl)cyclopropanecarboxylic acid] were 0% and 22.4%.
Take `O=C(O)C1(c2ccc(-c3ccc(OC4CCOCC4)cc3)c(F)c2)CC1` [CHF 5071, 1-[2-fluoro-4′-(tetrahydropyran-4-yloxy)biphenyl-4-yl]-cyclopropane-carboxylic acid]: the inhibition at 100 µM in assay [2] (setting [3]) came out at 0.4%; in assay [1], 28.1%.
In the same order, the values of `O=C(O)C1(c2ccc(-c3ccc(F)c(F)c3)c(F)c2)CC1` [CHF 5073, 1-(2,3′,4′-trifluorobiphenyl-4-yl)cyclopropanecarboxylic acid] are 4.8% and 67.4%.
On to `O=C(O)C1(c2ccc(-c3ccc(Cl)c(Cl)c3)c(F)c2)CC1` [CHF 5074, 1-(3′,4′-dichloro-2-fluorobiphenyl-4-yl)cyclopropanecarboxylic acid], for which the inhibition at 100 µM was found to be 0.5% in assay [2] (setting [3]) and 79.2% in assay [1].
Taken in the same sequence, the figures for `O=C(O)C1(c2ccc(-c3ccc(F)c(Cl)c3)c(F)c2)CC1` [CHF 5076, 1-(3′-chloro-2,4′-difluorobiphenyl-4-yl)cyclopropanecarboxylic acid] were 5.5% and 71.4%.
For `C#CCOc1ccc(-c2ccc(C3(C(=O)O)CC3)cc2F)cc1` [CHF 5078, 1-(2-fluoro-4′-prop-2-inyloxy-biphenyl-4-yl)-cyclopropanecarboxylic acid], in assay [2] (setting [3]), the “% COX-1 inhibitory activity” value was 3.6%. In assay [1], the “% inhibition of Aβ42 release” value was 57.5%.
`O=C(O)C1(c2ccc(-c3ccc(C4CCOCC4)cc3)c(F)c2)CC1` [CHF 5080, 1-[2-fluoro-4′-(tetrahydropyran-4-yl)-biphenyl-4-yl]-cyclopropanecarboxylic acid]: the inhibition at 100 µM amounted to 0.3% in assay [2] (setting [3]) and 51.8% in assay [1].
As to `O=C1CCC(c2ccc(-c3ccc(C4(C(=O)O)CC4)cc3F)cc2)CC1` [CHF 5081, 1-[2-fluoro-4′-(4-oxo-cyclohexyl)-biphenyl-4-yl]-cyclopropanecarboxylic acid], the inhibition at 100 µM in assay [2] (setting [3]) was found to be 6.1%; in assay [1], 52.3%.
With `O=C(O)C1CC1c1ccc(-c2ccc(-c3ccc(O)cc3)cc2)c(F)c1` (centres unmarked) [CHF 5083, 2-(2″-fluoro-4-hydroxy-[1,1′:4′,1″]tert-phenyl-4″-yl)-cyclopropanecarboxylic acid], the “% inhibition of Aβ42 release” value in assay [1] came out at 81.1%.
With `O=C(O)C1(c2ccc(-c3ccc(OC4CCC(C(F)(F)F)CC4)cc3)c(F)c2)CC1` (centres unmarked) [CHF 5096, 1-[2-fluoro-4′-[[4-(trifluoromethyl)cyclohexyl]oxy][1,1′-biphenyl]-4-yl]-cyclopropanecarboxylic acid], the inhibition at 100 µM in assay [2] (setting [3]) worked out at 0.8%; in assay [1] it was 70%.
On to `O=C(O)C1(c2ccc(-c3ccc(-c4ccc(F)cc4)cc3F)c(F)c2)CC1` [CHF 5105, 1-(2,2′,4″-trifluoro[1,1′:4′,1″-tert-phenyl]-4-yl)-cyclopropanecarboxylic acid], for which the “% COX-1 inhibitory activity” value in assay [2] (setting [3]) was determined as 1.9%. Moreover, the “% inhibition of Aβ42 release” value in assay [1] was 90.7%.
As for `O=C(O)C1(c2ccc(-c3ccc(-c4ccc(O)cc4)c(F)c3)c(F)c2)CC1` [CHF 5106, 1-(2,3′-difluoro-4″-hydroxy[1,1′:4′,1″-tert-phenyl]-4-yl)-cyclopropane-carboxylic acid], in assay [2] (setting [3]), the “% COX-1 inhibitory activity” value worked out at 0.0%. In assay [1], the “% inhibition of Aβ42 release” value is reported as 79.9%.
Regarding `O=C(O)C1(c2ccc(-c3ccc(-c4ccc(O)cc4)cc3F)c(F)c2)CC1` [CHF 5107, 1-(2,2′-difluoro-4″-hydroxy[1,1′:4′,1″-tert-phenyl]-4-yl)-cyclopropane-carboxylic acid], the “% COX-1 inhibitory activity” value in assay [2] (setting [3]) is listed as 1.1%. The “% inhibition of Aβ42 release” value in assay [1] was 83.3%.
Regarding `CC(C(=O)O)c1ccc(-c2ccccc2)c(F)c1` (centres unmarked) [Flurbiprofen, reference compound], the values for the inhibition at 100 µM in assay [2] and in assay [1] were 100% and about 25%, respectively.
